Experimental data reported in patent US20110086850A1, “RADIOSENSITIZATION OF TUMORS WITH INDAZOLPYRROLOTRIAZINES FOR RADIOTHERAPY” (Board of Regents, The University of Texas System, priority 2008, published 2011).

How the values were obtained:
γ-H2AX foci = γ-H2AX foci immunocytochemistry (DNA repair); format: cell-based; conditions: 24 hrs after radiation; AC480 600 nM (FIG. 7)
Method: The control is shown as open circle and solid line.
(§1) The radiosensitization effect of AC480 was evaluated in vitro using head neck squamous cell carcinoma cells, HNSCC-10, which express HER2 only and have no detectable amount of HER1 protein, and HN-5 cells, which express high levels of HER1 and HER2 proteins. […] AC480 was added to cell cultures that contained either HN-5 or HNSCC-10 cells 6 hrs before and kept in the medium for additional 66 hrs after irradiation. The cancerous cells were then irradiated with graded single doses of γ-radiation. At various predetermined time points after irradiation, the cells were assessed: (a) for clonogenic survival using clonogenic survival assays; (b) for apoptosis using aTUNEL assay; (c) for cell cycle distribution with FACS; and (d) for protein expression related to the cell cycle, apoptosis, and DNA repair, using Western blotting and immunoprecipitation methods.
The extent of DNA repair is quantified by measuring the generation of nuclear foci at the site of DNA damage by phosphorylated H2AX (γ-H2AX), which is involved in the retention of repair and signaling factor complexes at sites of DNA double strand breaks. γ-H2AX is detected with antibodies to phosphorylated H2AX using traditional immunohistochemistry (See, e.g., Friesner et al., Mol. Biol. Cell. 2005, ^-16, 2566-2576; and Dote et al., Clin. Cancer Res. 2005, 11, 4571-4579). […]

UMSCC-10 cells [1] = assay: Cell-cycle analysis (FACS) after radiation; format: cell-based
Method: as §1
(§2) Cell cycle distribution is measured by determining the ploidy of cells by staining the cells with fluorescent dye and sorting by FACS using a commercially available kit. AC480 increased radiation-induced accumulation of HN-5 but not in UMSCC-10 cells in the G1 cell cycle phase (FIG. 6).

HN-5 cells [2] = assay: Cell-cycle analysis (FACS) after radiation; format: cell-based
Method: as §1, §2

UMSCC-10 cells [3] = assay: Clonogenic survival assay with γ-irradiation; format: cell-based; conditions: AC480 300 or 600 nM from 6 hrs before to 66 hrs after 2, 4 or 6 Gy γ-rays
Method: as §1
(§3) HN-5 or UMSCC-10 cells were counted and plated. Twenty-four hours later, the cells in culture were then exposed to AC480 at 300 or 600 nM for 6 hrs. The cells were then irradiated with graded doses at 2, 4, or 6 Gy of γ-rays using a ^137Cs source (3.7 Gy/min). Sixty-six hours later, culture media with AC480 were removed and fresh media were added. Media change was also done for untreated control cells at the same time. After 11 to 14 days of incubation, colonies were counted. […] The dose enhancement ratio at survival fraction of 0.5 was 1.30 for 300 nM and 1.43 for 600 nM of AC480. Dose enhancement ratio was calculated by dividing the radiation dose required to achieve a surviving fraction of 0.5 in the absence of AC480 with the radiation dose required to achieve the same surviving fraction in the presence of AC480 at a specified concentration.

HN-5 cells [4] = assay: Clonogenic survival assay with γ-irradiation; format: cell-based; conditions: for dose enhancement ratio at survival fraction of 0.5: cell line not named in the sentence (HN-5 by context)
Method: as §1, §3

HN-5 tumor xenografts = assay: Tumor growth delay assay, HN-5 tumor xenografts; format: in vivo, nude male mice; conditions: AC480 120 mg/kg gavage once daily for 14 days
Method: The terms “dose enhancement ratio” and “dose enhancement factor” are used interchangeably herein and are used herein to measure the fold increase in cytotoxic efficacy of radiation when delivered in the presence of a radiosensitizer. In certain embodiments, dose enhancement ratio is calculated by dividing the radiation dose required to achieve a surviving fraction in the absence of the radiosensitizer with the radiation dose required to achieve the same surviving fraction in the presence of the radiosensitizer at a specified concentration. This calculation method can be used to assess the radiosensitizing effect of an radiosensitizer in an in vitro system, such as cells in culture. […]
The effect of AC480 on radioresponse was assessed by tumor growth delay assay using HN-5 tumor xenografts generated in nude male mice.
Specifically, HN-5 cells (1×10^6) were injected into the right leg of 3-4 month old nude male mice (nu-nu/Ncr) (SPF mice). […] Tumors were measured with calipers 3 times/week to determine tumor growth delay. […]

[5] = tested on: adenocarcinomas expressing HER1 and/or HER2 in salivary gland, breast, non-small cell lung, and gastric cancer cell lines; conditions: Wong et al., Clin. Cancer Res. 2006; cited from earlier work
UMSCC-10 cells [6] = assay: Cell proliferation assay (MTT assay); format: cell-based; conditions: AC480 50 nM—1 μM, 72 hrs
Method: as §1
(§4) The effect of AC480 on cell proliferation of HN-5 and UMSCC-10 cells was determined using 3-[4,5-dimethylthiozol-2-yl]-2,5-diphenyltetrazolium bromide (MTT) assay. HN-5 and UMSCC-10 cells are plated in 96-well plates and treated with a series of concentrations of AC480. […] The cells are then lysed in 150 μL of ethanol/DMSO mixture (1:1), and the absorbance read at 540 nm using a 96-well plate reader.

HN-5 cells [7] = assay: Cell proliferation assay (MTT assay); format: cell-based; conditions: AC480 50 nM—1 μM, 72 hrs
Method: as §1, §4

UMSCC-10 cells [8] = assay: TUNEL assay, radiation-induced apoptosis; format: cell-based
Method: as §1
(§5) Apoptotic cells are detected by in-situ labeling of fragmented DNA with enzymatically labeled nucleotides using the TUNEL method as described in commercial protocols or by following the procedure described in Sgonc et al., Trends in Genetic 1994, 10, 41-42. AC480 increased radiation-induced apoptosis in HN-5 but not in UMSCC-10 cells (FIG. 5).

HN-5 cells [9] = assay: TUNEL assay, radiation-induced apoptosis; format: cell-based
Method: as §1, §5

SMILES: Cc1c(NC(=O)OC[C@@H]2COCCN2)cn2ncnc(Nc3ccc4c(cnn4Cc4cccc(F)c4)c3)c12 [AC480]
- presence of γ-H2AX foci after radiation (γ-H2AX foci): prolonged
- effect on radiation-induced accumulation of cells in the G1 cell cycle phase (UMSCC-10 cells [1]): not
- effect on radiation-induced accumulation of cells in the G1 cell cycle phase (HN-5 cells [2]): increased
- effect on radiosensitivity (clonogenic survival) (UMSCC-10 cells [3]): not
- dose enhancement ratio at survival fraction of 0.5 (HN-5 cells [4]; 300 nM AC480): 1.30
- dose enhancement ratio at survival fraction of 0.5 (HN-5 cells [4]; 600 nM AC480): 1.43
- effect on radiosensitivity (clonogenic survival) (HN-5 cells [4]; HN-5 cells, AC480 300 or 600 nM from 6 hrs before to 66 hrs after 2, 4 or 6 Gy γ-rays): significantly enhanced
- effect on radioresponse of HN-5 tumors in vivo (HN-5 tumor xenografts; before and during radiation (5 Gy×5 days)): improve the radioresponse
- enhancement factor (tumor growth delay) (HN-5 tumor xenografts; with XRT 5 Gy×5 consecutive days, HN-5 xenografts in nude mice): 1.9
- cytotoxicity [5]: cytotoxic
- effect on cell growth (MTT) (UMSCC-10 cells [6]): not
- effect on cell growth (MTT) (HN-5 cells [7]): inhibits the growth
- effect on radiation-induced apoptosis (TUNEL) (UMSCC-10 cells [8]): not
- effect on radiation-induced apoptosis (TUNEL) (HN-5 cells [9]): increased
